Where a SMILES comes first, the peptide text is derived from it. Bridges are numbered along the chain shown (N, C = ends). [ ]: non-standard residue; d: D form. NMeW = CN[C@@H](Cc1c[nH]c2ccccc12)C(=O)O; Tle = CC(C)(C)[C@H](N)C(=O)O; dDab = NCC[C@@H](N)C(=O)O; Nle = CCCC[C@H](N)C(=O)O; Orn = NCCC[C@H](N)C(=O)O; Dab = NCC[C@H](N)C(=O)O; Dap = NC[C@H](N)C(=O)O; Sar = CNCC(=O)O
What was measured:
Assay type in all cases: cell-based
[1] = test system: Escherichia coli ATCC 25922; conditions: ATCC 25922
Procedure, shortened: (§1)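 Antibacterial activity is measured as MIC (μg/mL) by standard CLSI microdilution. Inocula of about 10^6 CFU/mL in MH-II broth meet two-fold peptide dilutions in medium with 0.002% Polysorbate 80, and growth is scored visually after 18-20 hours at 35° C.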

[2] = test system: Pseudomonas aeruginosa ATCC 27853; conditions: ATCC 27853
Procedure, shortened: as §1

[3] = test system: Acinetobacter baumannii 872842; conditions: 872842
[4] = test system: Klebsiella pneumoniae SSI #3010; conditions: SSI #3010
Procedure, shortened: as §1

[5] = test system: Acinetobacter baumannii DSM 30008; conditions: DSM 30008
Procedure, shortened: as §1

[6] = test system: Escherichia coli 926415; conditions: 926415
[7] = test system: Klebsiella pneumoniae 968733; conditions: 968733
[8] = test system: human red blood cells (hRBC); experiment: Hemolysis of human red blood cells; conditions: red cells of human, 1 h, 100 μg/mL
Procedure, shortened: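 Fresh human red blood cells are washed in PBS, then shaken with peptide (100 μg/mL) at 37° C. for 1 h, final erythrocyte density about 0.9×10^9 cells/mL. After centrifugation, diluted supernatants are read at 540 nm against buffer (0%) and Triton X-100 (100%) lysis controls.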

Row | Compound | Escherichia coli ATCC 25922 MIC [1] | Pseudomonas aeruginosa ATCC 27853 MIC [2] | Acinetobacter baumannii 872842 MIC [3] | Klebsiella pneumoniae SSI #3010 MIC [4] | Acinetobacter baumannii DSM 30008 MIC [5] | Escherichia coli 926415 MIC [6] | Klebsiella pneumoniae 968733 MIC [7] | Hemolysis at 100 μg/mL [8]
1 | CN[C@@H](Cc1c[nH]c2ccccc12)C(=O)N[C@H]1CSSC[C@@H](C(=O)N(C)CC(=O)N[C@@H](CCN)C(=O)N[C@H](C(=O)N[C@@H](CCN)C(=O)N[C@H]2CCNC(=O)[C@H]([C@@H](C)O)NC(=O)[C@H](CCN)NC(=O)[C@H](CCN)NC(=O)[C@H](CC(C)C)NC(=O)[C@@H](CC(C)C)NC(=O)[C@H](CCN)NC2=O)[C@@H](C)O)NC(=O)[C@H](Cc2ccc(O)cc2)NC(=O)[C@H](CN)NC(=O)[C@H](CC(C)C)NC(=O)[C@@H]2CCCN2C(=O)[C@H]2CCCN2C(=O)[C@H](Cc2ccc(O)cc2)NC(=O)[C@H](C)NC(=O)[C@H](C(C)C)NC1=O [Ex. 143] (H-[NMeW]CVAY[dP]PL[Dap]YC[Sar][Dab]T[Dab][Dab][Dab][dL]L[Dab][Dab]T; disulfide 2-11; lactam 16-C) | 0.03125 µg/mL | 0.25 µg/mL | 0.0625 µg/mL | 0.125 µg/mL | 0.0625 µg/mL | 0.0625 µg/mL | 0.125 µg/mL | <1%
2 | CC(=O)N[C@@H](Cc1c[nH]c2ccccc12)C(=O)N[C@H]1CSSC[C@@H](C(=O)N[C@@H](CCCN)C(=O)N[C@H](C(=O)N[C@@H](CCN)C(=O)N[C@@H](CCN)C(=O)N[C@H]2CCNC(=O)[C@H]([C@@H](C)O)NC(=O)[C@H](CCN)NC(=O)[C@H](CCN)NC(=O)[C@H](CC(C)C)NC(=O)[C@@H](Cc3ccccc3)NC(=O)[C@H](CCN)NC2=O)[C@@H](C)O)NC(=O)[C@H](Cc2ccc(O)cc2)NC(=O)[C@H](CO)NC(=O)[C@H]([C@@H](C)O)NC(=O)[C@@H]2CCCN2C(=O)[C@H]2CCCN2C(=O)[C@H](Cc2ccc(O)cc2)NC(=O)[C@H](C)NC(=O)[C@H](C(C)(C)C)NC1=O [Ex. 144] (Ac-WC[Tle]AY[dP]PTSYC[Orn]T[Dab][Dab][Dab][Dab][dF]L[Dab][Dab]T; disulfide 2-11; lactam 16-C) | 0.25 µg/mL | 0.25 µg/mL | 0.25 µg/mL | 0.25 µg/mL | 0.125 µg/mL | 0.5 µg/mL | 1 µg/mL | 4%
3 | CC(C)C[C@@H]1NC(=O)[C@@H](NC(=O)[C@@H](N)Cc2c[nH]c3ccccc23)CSSC[C@@H](C(=O)NCC(=O)N[C@@H](CCN)C(=O)N[C@H](C(=O)N[C@@H](CCN)C(=O)N[C@H]2CCNC(=O)[C@H]([C@@H](C)O)NC(=O)[C@H](CCN)NC(=O)[C@H](CCN)NC(=O)[C@H](CC(C)C)NC(=O)[C@@H](CC(C)C)NC(=O)[C@H](CCN)NC2=O)[C@@H](C)O)NC(=O)[C@H](CC(C)C)NC(=O)[C@H](CO)NC(=O)[C@H](Cc2ccc(O)cc2)NC(=O)[C@@H]2CCCN2C(=O)[C@H]2CCCN2C(=O)[C@H]([C@@H](C)O)NC(=O)[C@H](C)NC1=O [Ex. 145] (H-WCLAT[dP]PYSLCG[Dab]T[Dab][Dab][Dab][dL]L[Dab][Dab]T; disulfide 2-11; lactam 16-C) | 0.0625 µg/mL | 0.5 µg/mL | 0.0625 µg/mL | 0.0625 µg/mL | 0.03125 µg/mL | 0.125 µg/mL | 0.5 µg/mL | 3%
4 | CC(=O)N[C@@H](Cc1c[nH]c2ccccc12)C(=O)N[C@H]1CSSC[C@@H](C(=O)N[C@@H](CCCN)C(=O)N[C@H](C(=O)N[C@@H](CCN)C(=O)N[C@@H](CCN)C(=O)N[C@H]2CCNC(=O)[C@H]([C@@H](C)O)NC(=O)[C@H](CCN)NC(=O)[C@H](CCN)NC(=O)[C@H](CC(C)C)NC(=O)[C@@H](Cc3ccccc3)NC(=O)[C@H](CCN)NC2=O)[C@@H](C)O)NC(=O)[C@H](Cc2ccc(O)cc2)NC(=O)[C@H](CC(=O)O)NC(=O)[C@H](CC(C)C)NC(=O)[C@@H]2CCCN2C(=O)[C@H]2CCCN2C(=O)[C@H](CO)NC(=O)[C@H](Cc2ccc(O)cc2)NC(=O)[C@H](C(C)(C)C)NC1=O [Ex. 146] (Ac-WC[Tle]YS[dP]PLDYC[Orn]T[Dab][Dab][Dab][Dab][dF]L[Dab][Dab]T; disulfide 2-11; lactam 16-C) | 0.25 µg/mL | 0.5 µg/mL | 1 µg/mL | 0.25 µg/mL | 0.125 µg/mL | 4 µg/mL | 4 µg/mL | 3%
5 | CCCC[C@@H]1NC(=O)[C@@H]2CCCN2C(=O)[C@H]2CCCN2C(=O)[C@H](CO)NC(=O)[C@H](CO)NC(=O)[C@H](C(C)(C)C)NC(=O)[C@@H](NC(=O)[C@@H](N)Cc2c[nH]c3ccccc23)CSSC[C@@H](C(=O)N(C)CC(=O)N[C@@H](CCN)C(=O)N[C@H](C(=O)N[C@@H](CCN)C(=O)N[C@H]2CCNC(=O)[C@H]([C@@H](C)O)NC(=O)[C@H](CCN)NC(=O)[C@H](CCN)NC(=O)[C@H](CC(C)C)NC(=O)[C@@H](CC(C)C)NC(=O)[C@H](CCN)NC2=O)[C@@H](C)O)NC(=O)[C@H](Cc2ccc(O)cc2)NC(=O)[C@H](CN)NC1=O [Ex. 147] (H-WC[Tle]SS[dP]P[Nle][Dap]YC[Sar][Dab]T[Dab][Dab][Dab][dL]L[Dab][Dab]T; disulfide 2-11; lactam 16-C) | 0.0625 µg/mL | 1 µg/mL | 0.0625 µg/mL | 0.0625 µg/mL | 0.03125 µg/mL | 0.0625 µg/mL | 0.5 µg/mL | <1%
6 | CC(C)C[C@@H]1NC(=O)[C@@H](CC(C)C)NC(=O)[C@H](CCN)NC(=O)[C@@H](NC(=O)[C@H](CCN)NC(=O)[C@H](CCN)NC(=O)[C@@H](CCN)NC(=O)[C@H](CCCN)NC(=O)[C@@H]2CSSC[C@H](NC(=O)[C@@H](N)Cc3c[nH]c4ccccc34)C(=O)N[C@@H](C(C)C)C(=O)N[C@@H](CO)C(=O)N[C@@H](CO)C(=O)N3CCC[C@@H]3C(=O)N3CCC[C@H]3C(=O)N[C@@H](C(C)C)C(=O)N[C@@H](CN)C(=O)N[C@@H](Cc3ccc(O)cc3)C(=O)N2)CCNC(=O)[C@H]([C@@H](C)O)NC(=O)[C@H](CCN)NC(=O)[C@H](CCN)NC1=O [Ex. 148] (H-WCVSS[dP]PV[Dap]YC[Orn][dDab][Dab][Dab][Dab][Dab][dL]L[Dab][Dab]T; disulfide 2-11; lactam 16-C) | 0.25 µg/mL | 0.125 µg/mL | 0.25 µg/mL | 1 µg/mL | 0.5 µg/mL | 0.5 µg/mL | 4 µg/mL | <1%
7 | CC(C)C[C@@H]1NC(=O)[C@@H](CC(C)C)NC(=O)[C@H](CCN)NC(=O)[C@@H](NC(=O)[C@H](CCN)NC(=O)[C@@H](CCN)NC(=O)[C@@H](NC(=O)[C@H](CCCN)NC(=O)[C@@H]2CSSC[C@H](NC(=O)[C@@H](N)Cc3c[nH]c4ccccc34)C(=O)N[C@@H](C(C)C)C(=O)N[C@@H](CO)C(=O)N[C@@H](CO)C(=O)N3CCC[C@@H]3C(=O)N[C@@H](Cc3ccc(O)cc3)C(=O)N[C@@H](C(C)C)C(=O)N[C@@H](CN)C(=O)N[C@@H](Cc3ccc(O)cc3)C(=O)N2)[C@@H](C)O)CCNC(=O)[C@H]([C@@H](C)O)NC(=O)[C@H](CCN)NC(=O)[C@H](CCN)NC1=O [Ex. 149] (H-WCVSS[dP]YV[Dap]YC[Orn]T[dDab][Dab][Dab][Dab][dL]L[Dab][Dab]T; disulfide 2-11; lactam 16-C) | 0.5 µg/mL | 0.5 µg/mL | 0.0625 µg/mL | 0.25 µg/mL | 0.5 µg/mL | 0.125 µg/mL | 0.5 µg/mL | <1%
8 | CCCC[C@@H]1NC(=O)[C@@H]2CCCN2C(=O)[C@H]2CCCN2C(=O)[C@H](CO)NC(=O)[C@H](CO)NC(=O)[C@H](C(C)C)NC(=O)[C@@H](NC(=O)[C@@H](N)Cc2c[nH]c3ccccc23)CSSC[C@@H](C(=O)N(C)CC(=O)N[C@@H](CCN)C(=O)N[C@H](C(=O)N[C@@H](CCN)C(=O)N[C@H]2CCNC(=O)[C@H]([C@@H](C)O)NC(=O)[C@H](CCN)NC(=O)[C@H](CCN)NC(=O)[C@H](CC(C)C)NC(=O)[C@@H](CC(C)C)NC(=O)[C@H](CCN)NC2=O)[C@@H](C)O)NC(=O)[C@H](C)NC(=O)[C@H](CN)NC1=O [Ex. 150] (H-WCVSS[dP]P[Nle][Dap]AC[Sar][Dab]T[Dab][Dab][Dab][dL]L[Dab][Dab]T; disulfide 2-11; lactam 16-C) | 0.125 µg/mL | 1 µg/mL | 0.25 µg/mL | 0.25 µg/mL | 0.25 µg/mL | 0.5 µg/mL | 8 µg/mL | <1%

Source: patent publication US10829520B2, “Beta-hairpin peptidomimetics” (POLYPHOR AG, priority 2015, dated 2020)
